Test results: publication PMC4669708 (Cell Death & Disease, 2015)

Columns and labels:
Assay in all cases: c-ponatinib pulldown LC-MS/MS
Format in all cases: binding
TCP1 = TCP1 (Homo sapiens, UniProt P17987)
Method: (§1) Drug-affinity matrices were prepared as described previously.[51] In brief, 25 nmol of c-ponatinib were immobilized on 50 μl NHS-activated Sepharose 4 Fast Flow beads (GE Healthcare Bio-Sciences AB, Uppsala, Sweden). 10 mg whole cell lysate was used as protein input per replicate. Affinity chromatography and elution were performed in duplicate. After elution, the enriched proteins were reduced with dithiothreitol (DTT) and cysteine residues were alkylated by incubation with iodoacetamide. The samples were digested with modified porcine trypsin (Promega). Five percent of the digested eluates were purified and concentrated by C18 reversed-phase material. Subsequently, samples were analyzed in duplicates by gel-free one-dimensional LCMS.
(§2) Precursor and MS/MS peaks were extracted from the RAW files and saved in the MGF format using msconvert tool (ProteoWizard Library v2.1.2708, www.proteowizard.sourceforge.net) for subsequent protein identification. An initial database search was performed with broader mass tolerance and conservative score threshold to re-calibrate the mass lists for optimal final protein identification. For the initial protein database search, Mascot (www.matrixscience.com, v2.3.02) was used. Error tolerances on the precursor and fragment ions were ±10 p.p.m. and ±0.6 Da, respectively, and the database search limited to fully-tryptic peptides with maximum one missed cleavage, carbamidomethyl cysteine and methionine oxidation set as fixed and variable modifications, respectively. The Mascot peptide ion score threshold was set to 30, and at least three peptide identifications per protein were required. Searches were performed against the human UniProtKB/SwissProt database (www.uniprot.org release 2013.01) including all protein isoforms. The initial peptide identifications were used to deduce independent linear transformations for precursor and fragment masses that would minimize the mean square deviation of measured masses from theoretical. Re-calibrated mass list files were searched against the same human protein database by a combination of Mascot and Phenyx (GeneBio SA, Geneva, Switzerland; version 2.5.14) search engines using narrower mass tolerances (±4 p.p.m. and ±0.3 Da). One missed tryptic cleavage site was allowed. Carbamidomethyl cysteine was set as a fixed modification and oxidized methionine was set as a variable modification. To validate the proteins, Mascot and Phenyx output files were processed by internally developed parsers. Proteins with ≥2 unique peptides above a score T1, or with a single peptide above a score T2 were selected as unambiguous identifications. Additional peptides for these validated proteins with score >T3 were also accepted. For Mascot searches, the following thresholds were used: T1=14, T2=40 and T3=10; Phenyx thresholds were set to 4.2, 4.75 and 3.5, respectively (P-value<10^−3). The validated proteins retrieved by the two algorithms were merged, any spectral conflicts discarded and grouped according to shared peptides. A false discovery rate of <1% for protein identifications and <0.1% for peptides (including the ones exported with lower scores) was determined by applying the same procedure against a database of reversed protein sequences. […] In addition to Mascot protein scores that were proposed as an estimate of protein abundance by the original algorithm, the modified version also included Phenyx protein scores and spectral counts. The algorithm first estimated three measure-specific P-values for each putative interaction, and, in contrast to,[69] P-value calculation utilized the quantiles of the measurements rather than the original data. The Fisher's method was used to combine the three resulting P-values into a single P-value for drug–protein interaction specificity. We have also correlated interaction P-values with the magnitude of competition effect represented by the fold reduction of spectral counts on free compound competition. […]

MAPK11 = MAPK11 (Homo sapiens, UniProt Q15759)
Method: as §1, §2

TYK2 = TYK2 (Homo sapiens, UniProt P29597)
Method: as §1, §2

MLKL = biological target: T1, MLKL (Homo sapiens, UniProt Q8NB16)
T1 sequence (Q8NB16 1-471): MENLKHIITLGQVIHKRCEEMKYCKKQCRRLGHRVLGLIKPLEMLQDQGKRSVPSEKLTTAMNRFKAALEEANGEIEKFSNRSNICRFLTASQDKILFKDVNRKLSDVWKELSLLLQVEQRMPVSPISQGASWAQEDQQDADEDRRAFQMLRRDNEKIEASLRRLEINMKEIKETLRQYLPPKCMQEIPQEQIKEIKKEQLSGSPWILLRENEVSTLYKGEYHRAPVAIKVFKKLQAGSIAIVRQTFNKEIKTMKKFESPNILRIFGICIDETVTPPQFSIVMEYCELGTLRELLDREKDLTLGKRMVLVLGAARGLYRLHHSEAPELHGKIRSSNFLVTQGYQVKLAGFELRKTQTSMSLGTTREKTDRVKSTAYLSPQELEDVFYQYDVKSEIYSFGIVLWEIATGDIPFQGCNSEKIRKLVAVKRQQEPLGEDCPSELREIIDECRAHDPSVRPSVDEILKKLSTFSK
Method: as §1, §2

MAP4K1 = MAP4K1 (Homo sapiens, UniProt Q92918)
Method: as §1, §2

MAPK12 = biological target: T2, MAPK12 (Homo sapiens, UniProt P53778)
T2 sequence (P53778 1-367): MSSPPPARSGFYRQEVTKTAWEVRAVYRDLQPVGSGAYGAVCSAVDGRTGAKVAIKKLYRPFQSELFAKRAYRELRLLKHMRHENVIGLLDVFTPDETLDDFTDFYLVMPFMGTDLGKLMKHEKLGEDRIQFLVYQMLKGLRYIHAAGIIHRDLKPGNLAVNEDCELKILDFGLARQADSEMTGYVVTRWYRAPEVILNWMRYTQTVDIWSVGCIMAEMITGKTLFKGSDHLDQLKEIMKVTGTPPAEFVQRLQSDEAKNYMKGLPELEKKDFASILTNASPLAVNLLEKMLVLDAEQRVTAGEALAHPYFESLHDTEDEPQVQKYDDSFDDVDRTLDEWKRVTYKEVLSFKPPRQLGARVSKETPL
Method: as §1, §2

CSK = CSK (Homo sapiens, UniProt P41240)
Method: as §1, §2

Sequence of TCP1 (P17987 whole entry): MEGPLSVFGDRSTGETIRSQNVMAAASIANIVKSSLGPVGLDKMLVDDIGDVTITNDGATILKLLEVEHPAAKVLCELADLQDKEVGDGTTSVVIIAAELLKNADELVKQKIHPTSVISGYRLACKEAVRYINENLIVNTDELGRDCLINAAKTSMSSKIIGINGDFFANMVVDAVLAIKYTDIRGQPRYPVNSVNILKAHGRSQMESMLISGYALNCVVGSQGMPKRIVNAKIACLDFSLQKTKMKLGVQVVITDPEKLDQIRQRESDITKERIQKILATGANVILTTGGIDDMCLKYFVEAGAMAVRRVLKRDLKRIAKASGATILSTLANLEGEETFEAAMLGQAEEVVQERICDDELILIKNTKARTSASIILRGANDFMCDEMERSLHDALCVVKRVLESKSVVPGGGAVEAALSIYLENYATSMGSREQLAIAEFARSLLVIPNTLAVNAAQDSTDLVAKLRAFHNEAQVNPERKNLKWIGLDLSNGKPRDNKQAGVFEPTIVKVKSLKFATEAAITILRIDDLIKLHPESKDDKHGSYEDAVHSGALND
Sequence of TYK2 (P29597 whole entry): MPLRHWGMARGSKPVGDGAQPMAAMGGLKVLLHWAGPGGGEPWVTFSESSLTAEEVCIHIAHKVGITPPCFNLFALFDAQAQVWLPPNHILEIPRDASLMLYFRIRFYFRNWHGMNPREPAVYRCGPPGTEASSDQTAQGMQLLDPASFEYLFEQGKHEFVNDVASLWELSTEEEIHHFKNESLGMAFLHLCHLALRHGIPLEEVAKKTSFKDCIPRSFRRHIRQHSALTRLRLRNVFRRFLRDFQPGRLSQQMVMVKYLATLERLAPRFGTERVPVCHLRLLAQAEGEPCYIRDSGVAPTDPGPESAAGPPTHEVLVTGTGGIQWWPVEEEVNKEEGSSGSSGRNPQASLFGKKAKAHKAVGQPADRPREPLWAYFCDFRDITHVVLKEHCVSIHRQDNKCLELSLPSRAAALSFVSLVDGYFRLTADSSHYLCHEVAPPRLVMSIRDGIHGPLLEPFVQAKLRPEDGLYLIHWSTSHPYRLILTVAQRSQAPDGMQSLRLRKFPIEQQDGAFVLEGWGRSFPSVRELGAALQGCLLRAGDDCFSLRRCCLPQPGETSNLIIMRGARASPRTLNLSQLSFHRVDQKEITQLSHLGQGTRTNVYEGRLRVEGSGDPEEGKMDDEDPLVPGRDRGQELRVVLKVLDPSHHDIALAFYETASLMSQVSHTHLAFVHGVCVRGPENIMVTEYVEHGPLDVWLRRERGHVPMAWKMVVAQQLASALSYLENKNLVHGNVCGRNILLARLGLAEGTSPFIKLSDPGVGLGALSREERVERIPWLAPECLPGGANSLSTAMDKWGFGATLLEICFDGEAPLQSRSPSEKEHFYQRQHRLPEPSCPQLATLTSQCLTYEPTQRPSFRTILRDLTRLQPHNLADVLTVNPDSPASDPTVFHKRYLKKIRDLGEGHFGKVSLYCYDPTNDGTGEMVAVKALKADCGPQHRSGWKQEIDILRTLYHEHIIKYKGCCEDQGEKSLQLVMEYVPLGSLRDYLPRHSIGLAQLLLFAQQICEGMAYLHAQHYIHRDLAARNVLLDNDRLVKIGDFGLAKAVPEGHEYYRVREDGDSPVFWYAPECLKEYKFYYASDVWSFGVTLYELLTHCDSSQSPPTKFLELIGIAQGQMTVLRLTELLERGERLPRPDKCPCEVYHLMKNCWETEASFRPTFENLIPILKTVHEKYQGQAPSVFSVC
Sequence of MAP4K1 (Q92918 whole entry): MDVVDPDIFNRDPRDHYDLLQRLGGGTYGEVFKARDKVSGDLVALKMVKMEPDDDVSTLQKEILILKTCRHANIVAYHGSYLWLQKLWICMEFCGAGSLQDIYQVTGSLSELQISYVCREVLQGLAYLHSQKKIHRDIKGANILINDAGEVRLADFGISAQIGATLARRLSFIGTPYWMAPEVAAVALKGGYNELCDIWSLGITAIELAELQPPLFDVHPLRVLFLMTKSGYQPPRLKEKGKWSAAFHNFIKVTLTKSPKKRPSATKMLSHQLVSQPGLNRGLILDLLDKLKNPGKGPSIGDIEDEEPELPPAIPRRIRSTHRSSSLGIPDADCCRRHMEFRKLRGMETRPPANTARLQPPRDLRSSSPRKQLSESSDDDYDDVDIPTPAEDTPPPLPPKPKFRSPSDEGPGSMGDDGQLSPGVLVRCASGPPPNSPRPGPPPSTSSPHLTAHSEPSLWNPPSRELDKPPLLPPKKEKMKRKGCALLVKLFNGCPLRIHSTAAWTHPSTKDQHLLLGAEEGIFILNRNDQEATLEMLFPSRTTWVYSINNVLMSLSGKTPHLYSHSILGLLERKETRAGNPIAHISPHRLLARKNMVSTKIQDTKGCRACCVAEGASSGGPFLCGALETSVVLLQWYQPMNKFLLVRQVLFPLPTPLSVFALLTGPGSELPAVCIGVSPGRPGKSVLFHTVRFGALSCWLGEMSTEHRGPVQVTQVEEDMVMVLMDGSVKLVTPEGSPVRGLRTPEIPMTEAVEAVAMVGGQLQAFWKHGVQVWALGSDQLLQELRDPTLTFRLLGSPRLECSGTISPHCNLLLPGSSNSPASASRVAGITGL
Sequence of MAPK11 (Q15759 whole entry): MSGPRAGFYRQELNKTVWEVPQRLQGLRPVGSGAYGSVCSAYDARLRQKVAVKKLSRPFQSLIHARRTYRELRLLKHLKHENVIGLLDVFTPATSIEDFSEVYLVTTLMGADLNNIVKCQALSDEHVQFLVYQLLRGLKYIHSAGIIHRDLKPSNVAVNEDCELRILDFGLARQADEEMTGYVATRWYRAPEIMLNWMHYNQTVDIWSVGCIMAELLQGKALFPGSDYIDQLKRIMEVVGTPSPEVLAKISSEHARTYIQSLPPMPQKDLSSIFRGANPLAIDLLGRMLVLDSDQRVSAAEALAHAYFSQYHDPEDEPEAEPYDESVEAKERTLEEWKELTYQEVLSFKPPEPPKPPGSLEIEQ

Av. SC comp. (TCP1; + free ponatinib): 1.5 | Total SC comp. (TCP1; + free ponatinib): 6 | Av. SC (TCP1; no competitor): 5 | Total SC (TCP1; no competitor): 20 | Av. SC comp. (MAPK11; + free ponatinib): 0 | Total SC comp. (MAPK11; + free ponatinib): 0 | Av. SC (MAPK11; no competitor): 3 | Total SC (MAPK11; no competitor): 12 | Av. SC comp. (TYK2; + free ponatinib): 0 | Total SC comp. (TYK2; + free ponatinib): 0 | Av. SC (TYK2; no competitor): 14 | Total SC (TYK2; no competitor): 56 | Av. SC comp. (MLKL; + free ponatinib): 0 | Total SC comp. (MLKL; + free ponatinib): 0 | Av. SC (MLKL; no competitor): 5 | Total SC (MLKL; no competitor): 20 | Av. SC comp. (MAP4K1; + free ponatinib): 2.5 | Total SC comp. (MAP4K1; + free ponatinib): 10 | Av. SC (MAP4K1; no competitor): 46.75 | Total SC (MAP4K1; no competitor): 187 | Av. SC comp. (MAPK12; + free ponatinib): 3.75 | Total SC comp. (MAPK12; + free ponatinib): 15 | Av. SC (MAPK12; no competitor): 10.75 | Total SC (MAPK12; no competitor): 43 | Av. SC comp. (CSK; + free ponatinib): 4.5 | Total SC comp. (CSK; + free ponatinib): 18 | Av. SC (CSK; no competitor): 52.25 | Total SC (CSK; no competitor): 209
SMILES: Cc1ccc(C(=O)Nc2ccc(CN3CCN(CCCN)CC3)c(C(F)(F)F)c2)cc1C#Cc1cnc2cccnn12 [c-ponatinib]
